Laboratory results taken from article PMC3665828 (PLoS ONE, 2013).
“Also recorded” adds a separate entry of the source. Where two headings read alike, the source gives them in different places. Starred links: 1 amine or outer side, 2 acyl side, 3 side chain; linkers in the order of their positions; H or OH if unused. Residues, ends and D or L forms follow the SMILES beside them. No end group written: not given here. CO = O=C([*:1])[*:2]

Key:
[1] = tested on: angiotensin-generating proteases of immobilized human plasma proteins; assay: Incubation of immobilized human plasma proteins with ANG-1-10 in the presence of protease inhibitors (SRM-MS); type: biochemical
Experimental: The control was incubated with immobilized plasma proteins in the absence of inhibitors. The incubation with immobilized plasma proteins was carried out as described in “Incubation of immobilized plasma proteins”. The incubation was started by addition of ANG-1-10 to a final concentration of 10^−5 M to the immobilized plasma proteins.
The reaction products were analyzed by SRM-MS after 6 h (Figure S6).
Supplementary file pone.0064027.s006.tif: Figure S6 Processing of ANG-1-10 by immobilized human plasma proteases in the presence and abscence of protease inhibitors. […] Right y-axis: AUC of ANG-2-10 and ANG-3-10 after incubation in presence of EDTA. (TIF) Click here for additional data file.

[2] = molecular target: recombinant human aminopeptidase N (APN) (Homo sapiens, UniProt P15144); assay: Incubation of angiotensin peptides with recombinant aminopeptidase N (MALDI-MS); conditions: for Cleavage products generated from the substrate by recombinant aminopeptidase N (APN): substrate 10^−5 M in HPLC-grade water, 0.25 µg recombinant human APN per 100 µl, reaction products detected by MALDI-MS
recombinant human aminopeptidase N (APN) (Homo sapiens, UniProt P15144), sequence (P15144 whole entry): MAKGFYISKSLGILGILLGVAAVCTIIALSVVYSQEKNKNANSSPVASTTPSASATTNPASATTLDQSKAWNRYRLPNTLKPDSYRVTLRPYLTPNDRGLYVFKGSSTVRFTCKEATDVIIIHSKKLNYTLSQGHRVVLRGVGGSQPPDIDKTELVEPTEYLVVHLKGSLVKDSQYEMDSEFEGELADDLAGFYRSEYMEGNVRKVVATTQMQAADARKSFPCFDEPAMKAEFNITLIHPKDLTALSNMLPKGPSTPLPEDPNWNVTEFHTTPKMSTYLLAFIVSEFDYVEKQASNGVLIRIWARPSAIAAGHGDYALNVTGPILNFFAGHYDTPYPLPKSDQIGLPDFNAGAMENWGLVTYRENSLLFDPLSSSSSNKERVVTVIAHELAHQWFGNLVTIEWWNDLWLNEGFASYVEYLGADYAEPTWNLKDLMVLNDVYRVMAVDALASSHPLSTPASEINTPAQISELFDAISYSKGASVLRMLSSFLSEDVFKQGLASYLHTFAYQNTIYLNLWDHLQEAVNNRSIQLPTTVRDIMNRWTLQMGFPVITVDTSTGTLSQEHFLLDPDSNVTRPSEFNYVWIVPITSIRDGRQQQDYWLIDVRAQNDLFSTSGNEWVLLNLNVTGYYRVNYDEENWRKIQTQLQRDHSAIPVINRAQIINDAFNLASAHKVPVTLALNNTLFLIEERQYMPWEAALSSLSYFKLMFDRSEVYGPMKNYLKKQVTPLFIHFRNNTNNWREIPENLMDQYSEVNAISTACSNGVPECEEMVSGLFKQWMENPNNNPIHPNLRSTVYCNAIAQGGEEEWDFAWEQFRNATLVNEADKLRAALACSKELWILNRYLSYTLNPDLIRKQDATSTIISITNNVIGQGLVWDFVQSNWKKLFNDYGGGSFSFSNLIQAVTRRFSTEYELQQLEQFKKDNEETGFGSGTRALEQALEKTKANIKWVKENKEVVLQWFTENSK
Experimental: (§1) At defined incubation times aliquots (10 µl) were taken from the reaction mixtures. Reaction was stopped by addition of formic acid adjusting a final concentration of 0.2% (v/v) formic acid/HPLC-grade water. Samples were analyzed by MALDI-MS (Reflex IV, Bruker) using DHB as matrix.
APN is a protease that is known to cleave ANG-2-8 between the Arg2-Val3 in vitro [22] and in vivo [23], [24]. Thus it is a potential protease for the generation of ANG-3-10.

[3] = tested on: immobilized rat plasma proteins
Experimental: (§2) Heparinized (10 IU/ml) mouse and rat blood (200 µl) was obtained from the caudal vein. Plasma was isolated from all blood samples by centrifugation (4–16 K, Sigma) 4000×g for 15 min.
(§3) For the immobilization of plasma proteins CNBr-activated Sepharosebeads® 6MB (GE Healthcare) were used. Protein immobilization was perfomed as described in the product information sheet for CNBr-activated Sepharosebeads® (Sigma Aldrich) except for modifications described in the supporting information part “immobilization of plasma proteins” (Methods S1).
Incubation of immobilized plasma proteins and the control samples (glycine derivatized Sepharosebeads® without immobilized proteins and heat inactivated immobilized plasma proteins for the incubation with ANG-1-10) was started by addition of the individual angiotensin peptides (final concentration of 10^−5 M, solved in HPLC-grade water, Lichrosolve, Merck) to the beads. Incubation was carried out at 37°C on a rotating shaker. The final reaction volume of the samples was 30 µl.
Identification of the reaction products was done by comparison of the m/z values of the peaks in the mass spectra with the theoretical m/z values (Table S2) of possible angiotensin peptide products.
ANG-1-10 (10^−5 M) was incubated with immobilized rat plasma proteins. Reaction products were detected by MALDI-MS after 0 h, 1 h, 3 h and 8 h.

[4] = tested on: immobilized human plasma proteins; assay: Incubation of angiotensin peptides with immobilized human plasma proteins; type: in vitro ADME
Experimental: For incubation experiments human venous citrate blood (ratio 1∶9, blood to sodium citrate 3,13% (Eifelfango)) was obtained by catheterization from the cubital vein of a healthy volunteer (blood pressure: normal, <120/80 mmHg).
Analysis of the reaction by SRM was performed on a LC-ESI-QQQ-MS system. Exoproteolytic processing of these angiotensin peptides requires the presence of plasma proteases which are able to cognate and cleave the intermediate angiotensin peptides. […] When ANG-5-10 was incubated in presence of human immobilized plasma proteins time the dependent generation of ANG-6-10 was detected. After an incubation period of 8 h nearly no angiotensin peptides were detected in any of the reaction mixtures.
Dry Sepharosebeads® were swollen in 10 ml 0.1 mM hydrochloric acid/ HPLC (high pressure liquid chromatography)-grade water for 30 min on a rotating shaker. Subsequently they were washed repeatedly with HPLC-grade water (Lichrosolve, Merck). Afterwards Sepharosebeads® were equilibrated by multiple washing steps with protein coupling buffer (100 mM NaHCO3, 500 mM NaCl, pH 8,3). For protein immobilization plasma samples with a volume of 40 µl were mixed with coupling buffer in a ratio of 1:6 and mixed with the prepared Sepharosebeads® followed by incubation for 2h on a rotating shaker (room temperature). As a control heat inactivated plasma (boiled for 5 min) was immobilized. A volume of 40 µl swollen Sepharosebeads® was used per sample. After protein immobilization the Sepharosebeads® were washed three times with HPLC-grade water. Free binding sites of the Sepharosebeads® were saturated by incubation with blocking buffer (100 mM NaHCO3,500 mM NaCl, pH 8,3, 1 M Glycine, pH 8,3) for 2h on a rotating shaker (room temperature).

[5] = tested on: immobilized mouse plasma proteins
Experimental: as §2, §3
Incubation of immobilized plasma proteins and the control samples (glycine derivatized Sepharosebeads® without immobilized proteins and heat inactivated immobilized plasma proteins for the incubation with ANG-1-10) was started by addition of the individual angiotensin peptides (final concentration of 10^−5 M, solved in HPLC-grade water, Lichrosolve, Merck) to the beads. Incubation was carried out at 37°C on a rotating shaker. […]
To investigate the processing of ANG-1-10 by human plasma proteases we used a mass spectrometry based enzyme screening (MES) system [20]. Therefore immobilized murine and human plasma proteins were incubated with ANG-1-10 and the reaction products were analyzed by mass spectrometry. […]
ANG-1-10 (10^−5 M) was incubated with immobilized mouse plasma proteins. Reaction products were detected by MALDI-MS after 0 h, 3 h, 4 h and 8 h. […]

[6] = tested on: non-immobilized human plasma
Experimental: From this blood sample an aliquot of 10 ml was saved for the incubation experiments. The rest of the blood sample was immediately mixed with protease inhibitor cocktail (including 2 mM AEBSF, 0.3 µM aprotinin, 130 µM bestatin, 1 mM EDTA, 14 µM E-64 and 1 µM leupeptin (Sigma-Aldrich)) in a ratio of 1∶50.
For incubation of non-immobilized plasma a reaction volume of 200 µl non-immobilized undiluted and diluted plasma (1∶100 in HPLC-grade water) was used per sample. Incubation was started by addition of ANG-1-10 to a final concentration of 10^−5 M. Incubation was carried out at 37°C on a rotating shaker. As a control 200 µl of a 10^−5 M ANG-1-10 solution without plasma was incubated under the same conditions.
The reaction products derived from the incubation of non-immobilized plasma proteins were desalted by solid phase extraction (Hydophilic lipophilic balance (HLB) µElution plate, Waters). The HLB material was equilibrated by three washing steps with 0.2% formic acid/HPLC-grade water by centrifugation of the plate for 1 min with 500×g. Next, the sample was applied to the HLB material and centrifuged for 2 min with 200×g. The flow-through was discarded and unbound molecules were removed by washing the HLB material 3 times with 0.2% formic acid/HPLC-grade water by centrifugation of the plate for 2 min with 500×g. […]

[7] = tested on: recombinant human aminopeptidase N (APN); assay: 0.25 µg recombinant human aminopeptidase N in 100 µl angiotensin solution; conditions: up to 24 h
recombinant human ACE-1 = recombinant human ACE-1 (Homo sapiens, UniProt P12821); assay: Incubation of angiotensin peptides with recombinant ACE-1 (MALDI-MS); conditions: peptide 10^−5 M, 0.25 µg recombinant human ACE-1, MALDI-MS after 8 h
recombinant human ACE-1, sequence (P12821 30-1306): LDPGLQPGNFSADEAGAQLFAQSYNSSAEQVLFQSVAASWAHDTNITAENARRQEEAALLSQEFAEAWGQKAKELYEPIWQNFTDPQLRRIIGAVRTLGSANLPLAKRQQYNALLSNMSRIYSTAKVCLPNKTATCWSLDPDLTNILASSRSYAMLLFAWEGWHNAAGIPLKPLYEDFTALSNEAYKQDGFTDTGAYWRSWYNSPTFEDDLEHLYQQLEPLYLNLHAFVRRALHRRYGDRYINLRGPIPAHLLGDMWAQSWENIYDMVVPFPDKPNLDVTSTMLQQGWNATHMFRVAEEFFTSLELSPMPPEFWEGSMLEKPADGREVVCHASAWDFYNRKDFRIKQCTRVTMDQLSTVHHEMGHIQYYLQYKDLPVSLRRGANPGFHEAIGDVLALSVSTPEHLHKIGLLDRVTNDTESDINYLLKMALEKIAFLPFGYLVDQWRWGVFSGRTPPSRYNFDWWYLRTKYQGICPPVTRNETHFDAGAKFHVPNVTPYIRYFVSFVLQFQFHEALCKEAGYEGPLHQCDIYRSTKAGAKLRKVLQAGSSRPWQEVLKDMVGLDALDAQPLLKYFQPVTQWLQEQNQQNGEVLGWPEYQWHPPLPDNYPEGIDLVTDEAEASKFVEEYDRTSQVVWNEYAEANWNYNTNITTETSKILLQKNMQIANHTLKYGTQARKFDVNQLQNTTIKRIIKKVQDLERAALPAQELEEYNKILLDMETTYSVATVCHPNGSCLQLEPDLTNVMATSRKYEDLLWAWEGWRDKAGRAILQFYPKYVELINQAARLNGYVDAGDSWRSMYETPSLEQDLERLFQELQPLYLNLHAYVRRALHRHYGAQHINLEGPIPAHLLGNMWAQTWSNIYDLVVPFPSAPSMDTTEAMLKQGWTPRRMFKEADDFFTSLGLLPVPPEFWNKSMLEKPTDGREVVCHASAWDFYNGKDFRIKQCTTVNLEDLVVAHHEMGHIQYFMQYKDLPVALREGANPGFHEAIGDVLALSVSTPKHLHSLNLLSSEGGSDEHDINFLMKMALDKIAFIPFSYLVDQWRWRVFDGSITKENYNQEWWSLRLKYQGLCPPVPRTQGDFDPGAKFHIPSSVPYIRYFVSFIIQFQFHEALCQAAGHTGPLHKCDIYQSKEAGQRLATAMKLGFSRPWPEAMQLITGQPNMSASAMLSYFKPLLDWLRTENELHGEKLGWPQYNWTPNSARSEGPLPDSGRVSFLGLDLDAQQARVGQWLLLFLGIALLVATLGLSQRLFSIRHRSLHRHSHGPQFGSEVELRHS
Experimental: as §1
It is known that ACE-1 generates ANG-1-8 by removal of the last two C-terminal amino acids (His9-Leu10) of ANG-1-10. […] The reaction products were analyzed by MALDI-MS (Figure S7).
Supplementary file pone.0064027.s007.tif: Figure S7 Processing of angiotensin peptides by recombinant ACE-1. […] ACE-1 was incubated with A) ANG-1-10, B) ANG-2-10, C) ANG-3-10, D) ANG-4-10, E) ANG-5-10. Reaction products were analyzed by MALDI-MS after an incubation time of 8 h. MALDI-MS-Signals which were assigned as angiotensin peptides are marked by arrows. (TIF) Click here for additional data file.

[8] = tested on: angiotensin converting enzyme-1 (ACE-1); assay: 0.25 µg recombinant human ACE-1 in 100 µl angiotensin solution; conditions: up to 8 h
[9] = immobilized human plasma proteins (CNBr-activated Sepharosebeads); conditions: 37°C, up to 24 h
APN = assay: in vitro and in vivo; conditions: cited from earlier work
[10] = tested on: anti ANG-1-10 antibody (rabbit polyclonal); conditions: rabbit polyclonal antibody of the kit; ref Fluorescent EIA Kit, phoenix pharmaceuticals; cited from earlier work
Experimental: The RP-HPLC plasma peptide fractionations corresponding to the retention times of the synthetic angiotensin peptides were analyzed by an immuno-fluorescence assay that was originally manufactured for the quantification of ANG-1-10.

rat blood = conditions: cited from earlier work
[11] = ANG-1-10 10^−5 M, immobilized human plasma proteins, 200 µM AEBSF, 50 µM antipain, 150 µM bestatin, 100 µM EDTA, SRM-MS after 6 h, mean ± SEM, n = 3
[12] = ANG-1-10 10^−5 M, immobilized human plasma proteins, 200 µM AEBSF, 50 µM antipain, 150 µM bestatin, 10 µM captopril, 100 µM chymostatin, 100 µM EDTA, SRM-MS after 6 h, mean ± SEM, n = 3
[13] = substrate 10^−5 M, immobilized human plasma proteins, 37°C, SRM-MS (LC-ESI-QQQ-MS) / MALDI-MS

Compound: NCCc1ccc(S(=O)(=O)F)cc1 [AEBSF]
- Change of ANG-3-10-generating activity in the presence of inhibitor [1, 11]: inhibited

Compound: CC[C@H](C)[C@H](NC(=O)[C@H](Cc1ccc(O)cc1)NC(=O)[C@@H](NC(=O)[C@H](CCCNC(=N)N)NC(=O)[C@@H](N)CC(=O)O)C(C)C)C(=O)N[C@@H](Cc1cnc[nH]1)C(=O)N1CCC[C@H]1C(=O)N[C@@H](Cc1ccccc1)C(=O)O [ANG-1-8, angiotensin II]
- Cleavage products generated from the substrate by recombinant aminopeptidase N (APN) [2]: none

Compound: CC(C)[C@H](NC(=O)[C@H](CCCNC(=N)N)NC(=O)N[C@@H](Cc1ccccc1)C(=O)O)C(=O)N[C@H](C=O)CCCNC(=N)N [Antipain] ({Phe-CO}-Arg-Val-Arg-aldehyde)
- Change of ANG-6-10-generating activity in the presence of inhibitor [1]: slightly inhibited
- Change of ANG-2-10-generating activity in the presence of inhibitor ([1]; ANG-1-10 10^−5 M, immobilized human plasma proteins, 50 µM antipain, 150 µM bestatin, 100 µM EDTA, SRM-MS after 6 h, mean ± SEM, n = 3): −0.12±0.023
- Change of ANG-4-10-generating activity in the presence of inhibitor ([1]; ANG-1-10 10^−5 M, immobilized human plasma proteins, 50 µM antipain, SRM-MS after 6 h, mean ± SEM, n = 3): -0.21±0.05
- Change of ANG-3-10-generating activity in the presence of inhibitor [1, 11]: inhibited

Compound: CC(C)C[C@H](NC(=O)[C@@H](O)[C@H](N)Cc1ccccc1)C(=O)O [Bestatin]
- Change of ANG-6-10-generating activity in the presence of inhibitor [1, 12]: 0.76±0.14
- Change of ANG-3-10-generating activity in the presence of inhibitor [1, 11]: Higher amounts

Compound: C[C@H](CS)C(=O)N1CCC[C@H]1C(=O)O [Captopril]
- Change of ANG-6-10-generating activity in the presence of inhibitor [1, 12]: 0.98±0.32

Compound: CC(C)C[C@H](NC(=O)[C@@H](NC(=O)N[C@@H](Cc1ccccc1)C(=O)O)[C@@H]1CCN=C(N)N1)C(=O)N[C@H](C=O)Cc1ccccc1 [Chymostatin]
- Change of ANG-6-10-generating activity in the presence of inhibitor [1]: 1.30±0.14

Compound: O=C(O)CN(CCN(CC(=O)O)CC(=O)O)CC(=O)O [EDTA]
- Change of ANG-3-10-generating activity in the presence of inhibitor [1, 11]: 3.4±0.8

Compound: DRVYIHPFHL [ANG-1-10, angiotensin I]
- Only reaction products left after 8 h of incubation, rat plasma [3]: ANG-1-7, ANG-1-8 and ANG-5-10
- Reaction products generated from the substrate by immobilized rat plasma proteins [3]: ANG-1-8 (m/z 1046.5), ANG-1-7 (m/z 899.5), ANG-2-10 (m/z 1181.7), ANG-3-10 (m/z 1025.6), ANG-4-10 (m/z 926.5), ANG-5-10 (m/z 763.4)
- Reaction products generated from the substrate by immobilized human plasma proteins [4]: A-1-9, ANG-1-8, ANG-1-7, ANG-2-10, ANG-3-10, ANG-4-10, ANG-5-10 and ANG-6-10
- Only reaction products left after 8 h of incubation, mouse plasma [5]: ANG-1-8
- Reaction products generated from the substrate by immobilized mouse plasma proteins [5]: ANG-1-8 (m/z 1046.5), ANG-1-7 (m/z 899.5), ANG-2-10 (m/z 1181.7), ANG-3-10 (m/z 1025.6), ANG-4-10 (m/z 926.5), ANG-5-10 (m/z 763.4)
- Reaction products generated from the substrate by non-immobilized human plasma proteins [6]: A-1-9, ANG-1-8, ANG-1-7, ANG-2-10, ANG-3-10, ANG-4-10, ANG-5-10 and ANG-6-10

Compound: HPFHL
- not cleaved [7]: not further degraded by APN within 24 h

Compound: HPFHL [ANG-6-10]
- Stability towards APN ([2]; within 24 h of incubation with recombinant APN, MALDI-MS): not further degraded
- Reaction product generated by recombinant ACE-1 (recombinant human ACE-1): no cleavage product was observed

Compound: IHPFHL
- cleaved bond [8]: F8-His9
- fragment found [7]: ANG-6-10
- fragment found [9]: ANG-6-10

Compound: IHPFHL [ANG-5-10]
- Cleavage products generated from the substrate by recombinant aminopeptidase N (APN) [2]: HPFHL
- Reaction product generated by recombinant ACE-1 (recombinant human ACE-1): ANG-5-8
- Reaction products generated from the substrate by immobilized human plasma proteins [4, 13]: ANG-6-10

Compound: RVYIHPF
- cleaved bond (APN): Arg2-Val3

Compound: RVYIHPF [ANG-2-8, angiotensin peptide also known as AIII]
- Cross reactivity with the anti ANG-1-10 antibody [10]: no cross reactivity

Compound: RVYIHPFHL
- cleaved bond [8]: F8-His9
- fragment found [7]: ANG-3-10, 1 h; also recorded: ANG-4-10, 1 h; also recorded: ANG-5-10, 4 h; also recorded: ANG-6-10, 8 h
- fragment found (rat blood): ANG-2-8
- fragment found [9]: ANG-3-10; also recorded: ANG-4-10; also recorded: ANG-5-10; also recorded: ANG-6-10; also recorded: ANG-2-8, 8 h; also recorded: ANG-3-8, 8 h; also recorded: ANG-4-8, 8 h

Compound: RVYIHPFHL [ANG-2-10]
- Cleavage products generated from the substrate by recombinant aminopeptidase N (APN) [2]: VYIHPFHL; also recorded: YIHPFHL; also recorded: IHPFHL; also recorded: HPFHL
- Reaction product generated by recombinant ACE-1 (recombinant human ACE-1): ANG-2-8
- Further reaction products detected by MALDI-MS after 8 h of incubation ([4]; substrate 10^−5 M, immobilized human plasma proteins, 37°C, MALDI-MS after 8 h): ANG-2-8 (m/z 931.5), ANG-3-8 (m/z 775.4) and ANG-4-8 (m/z 676.3)
- Reaction products generated from the substrate by immobilized human plasma proteins [4, 13]: ANG-3-10, ANG-4-10, ANG-5-10 and ANG-6-10

Compound: VYIHPFHL
- cleaved bond [8]: F8-His9
- fragment found [7]: ANG-4-10, 1 h; also recorded: ANG-6-10, 1 h
- fragment found [9]: ANG-4-10; also recorded: ANG-5-10; also recorded: ANG-6-10

Compound: VYIHPFHL [ANG-3-10]
- Cleavage products generated from the substrate by recombinant aminopeptidase N (APN) [2]: YIHPFHL; also recorded: HPFHL
- Reaction product generated by recombinant ACE-1 (recombinant human ACE-1): ANG-3-8
- Reaction products generated from the substrate by immobilized human plasma proteins [4, 13]: ANG-4-10, ANG-5-10 and ANG-6-10

Compound: YIHPFHL
- cleaved bond [8]: F8-His9
- fragment found [7]: ANG-5-10, 1 h; also recorded: ANG-6-10, 1 h
- fragment found [9]: ANG-5-10; also recorded: ANG-6-10

Compound: YIHPFHL [ANG-4-10]
- Cleavage products generated from the substrate by recombinant aminopeptidase N (APN) [2]: IHPFHL; also recorded: HPFHL
- Reaction product generated by recombinant ACE-1 (recombinant human ACE-1): ANG-4-8
